The values that follow are results of earlier work, collected in patent US20080044504A1, “Pomegranate Juice, Pomegranate Juice Powder and Process for Producing the Powder” (Marukin Bio, Inc., priority 2004, published 2008).

Read-outs that look alike come from different tables or passages of the source.

This data set concerns estrogen receptor.

On to `O=c1c(-c2ccc(O)cc2)coc2cc(O)ccc12` [daidzein], for which the “binding to the estrogen receptor” value (binding rate of DES defined as 100%) is given as 0.04%.
As for `O=c1c(-c2ccc(O)cc2)coc2cc(O)cc(O)c12` [genistein], the “binding to the estrogen receptor” value is 1.7%.
